Consider two compounds from US20250049809A1, “INHIBITORS OF MUTANT IDH1 AND IDH2” (Board of Regents, The University of Texas System, priority 2023, published 2025).

The target of test [1] is TF1 IDH2R140Q (Homo sapiens (Human), UniProt P48735, R140Q). Kind of test: TF1 IDH2 R140Q 2-HG cellular assay. The test is classed as cell-based. To be noted: extracellular 2HG, 24 hr treatment, IDH2 mutant-TF1 isogenic cell line. On the procedure:
The IDH2 mutant-TF1 isogenic cell line (ATCC CRL-20031G) used to test cellular inhibition is an erythroblast cell line that was isolated from the marrow of a patient with erythroleukemia with the IDH2R140Q mutation. These cells are maintained in RPMI-1640 (ATCC 30-2001) culture media with 10% FBS, 10 U/mL Penicillin-Streptomycin, and 2 ng/mL GM-CSF. Thirty thousand cells are plated in polystyrene tissue culture treated 384 well cell culture plates (PerkinElmer 6007680) (30,000 cells/well) approximately 2 hours before compound treatment. Cells are then treated with different concentrations of test compounds (5 μM to 0.3 pM) for 24 hr. Extracellular 2HG levels are measured from cell culture media. For analyte extraction, 30 μL of culture media is transferred to 120 μL 100% acetonitrile in a deep 384 well plate and mixed well, followed by 5 min centrifugation at 3700 rpm at room temperature. 100 μL of supernatant is transferred to a flat bottom 384 well plate. Samples are run on the Agilent RapidFire-Mass Spectrometry instrument to detect 2HG levels. The samples from each well were aspirated for 600 ms and loaded onto a HILIC solid-phase extraction cartridge (Agilent) followed by a wash step for 3000 ms with 90% acetonitrile containing 5 mM ammonium acetate. Analytes were then eluted off the cartridge into the Agilent 6460 Triple Quad mass spectrometer with a 4500 ms elution step using 30% acetonitrile containing 5 mM ammonium acetate. The HILIC cartridge was then re-equilibrated by 90% acetonitrile containing 5 mM ammonium acetate for 500 ms. The 2HG was detected by an Agilent 6460 Triple Quad mass spectrometer in negative ion mode. Multiple reaction monitoring was used to quantify 2HG using the precursor ion and product ion at m/z 147.03 and 128.9, respectively. The percent activity of each sample is calculated by using DMSO and control compound treated references, and IC50 values are obtained using the GeneData Screener data analysis program.

Test [2] deals with WT IDH1 (Homo sapiens (Human), UniProt O75874). Kind of test: WT IDH1 enzymatic activity assay (NADPH fluorescence). It is filed as biochemical. To be noted: enzyme assay. The protocol: The enzymatic activity of WT IDH1 was assessed by measuring the fluorescence of the NADPH generated in the enzymatic reaction. The assay was performed in 384 well, white ProxiPlates (PerkinElmer, 6008280) in assay buffer containing 50 mM Hepes (Life Technologies, 15630080), 50 mM KCl (Teknova, P0327), 10 mM MgCl2 (Sigma-Aldrich, M1028), 1 mM DTT (Sigma-Aldrich, 43815), 0.02% BSA (Sigma-Aldrich, A3059) at pH 7.5. The final reaction volume was 10 μL. Stock solutions of the test compounds were prepared in 100% DMSO (Sigma, D2650) and serially diluted 1:3 using 100% DMSO. 50 nL of compound were then transferred to the assay plate using the Beckman Coulter ECHO 650 Acoustic Liquid Handler for a final DMSO concentration of 0.5%. 5 μL of WT IDH1 were added to the assay plate for a final concentration of 0.5 nM. 5 μL of assay buffer alone were added to negative control wells. 5 μL of an isocitrate (Sigma-Aldrich, 58790) and NADP (Sigma-Aldrich, N5755) mixture were added to the assay plate for a final concentration of 5 μM and 15 μM, respectively. Fluorescence of NADPH (excitation: 350 nm, emission 450 nm) was immediately measured kinetically for approximately 15 minutes using the BioTek Synergy Neo plate reader.

Test [3] has as its target mIDH1R132H/S280F (Homo sapiens (Human), UniProt O75874, R132H/S280F). As to the kind of experiment: mIDH1 R132H/S280F enzymatic activity assay (NADPH fluorescence). The settings on record: enzyme assay, 1 hour preincubation; read-out: IDH1R132H/S280F IC50. The test is classed as biochemical. The protocol:
The enzymatic activity of mIDH1R132H/S280F was assessed by measuring the fluorescence of the NADPH. The assay was performed in 384 well, white ProxiPlates (PerkinElmer, 6008280) in assay buffer containing 50 mM Hepes (Life Technologies, 15630080), 50 mM KCl (Teknova, P0327), 10 mM MgCl2 (Sigma-Aldrich, M1028), 1 mM DTT (Sigma-Aldrich, 43815), 0.02% BSA (Sigma-Aldrich, A3059) at pH 7.5. The final reaction volume was 10 μL. Stock solutions of the test compounds were prepared in 100% DMSO (Sigma, D2650) and serially diluted 1:3 using 100% DMSO. 50 nL of compound were then transferred to the assay plate using the Beckman Coulter ECHO 650 Acoustic Liquid Handler for a final DMSO concentration of 0.5%. 5 μL of a mIDH1R132H/S280F and NADPH (Santa Cruz, SC202725C) mixture were added to the assay plate for a final concentration of 2 nM and […], respectively. 5 μL of NADPH alone were added to negative control wells followed by a 1 hour preincubation at room temperature. 5 μL of alphaketoglutarate (Sigma-Aldrich, K1128) were added to the assay plate for a final concentration of 120 μM. Fluorescence of NADPH (excitation: 350 nm, emission 450 nm) was immediately measured kinetically for approximately 90 minutes using the BioTek Synergy Neo plate reader.

WT IDH1, sequence (O75874 whole entry): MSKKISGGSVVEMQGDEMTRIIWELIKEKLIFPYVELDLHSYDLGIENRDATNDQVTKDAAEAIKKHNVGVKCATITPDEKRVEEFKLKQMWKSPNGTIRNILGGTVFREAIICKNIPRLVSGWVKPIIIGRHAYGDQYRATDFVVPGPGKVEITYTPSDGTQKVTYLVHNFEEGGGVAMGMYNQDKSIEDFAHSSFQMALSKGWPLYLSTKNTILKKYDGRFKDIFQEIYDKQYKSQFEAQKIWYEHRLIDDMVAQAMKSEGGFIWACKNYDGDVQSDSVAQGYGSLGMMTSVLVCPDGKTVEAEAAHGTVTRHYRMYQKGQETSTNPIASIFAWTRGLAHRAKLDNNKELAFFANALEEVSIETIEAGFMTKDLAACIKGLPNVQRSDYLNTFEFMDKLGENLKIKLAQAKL
mIDH1R132H/S280F, sequence (O75874 whole entry R132H/S280F): as the sequence (O75874 whole entry) above, with R132H, S280F counted along it
TF1 IDH2R140Q, sequence (P48735 40-452 R140Q): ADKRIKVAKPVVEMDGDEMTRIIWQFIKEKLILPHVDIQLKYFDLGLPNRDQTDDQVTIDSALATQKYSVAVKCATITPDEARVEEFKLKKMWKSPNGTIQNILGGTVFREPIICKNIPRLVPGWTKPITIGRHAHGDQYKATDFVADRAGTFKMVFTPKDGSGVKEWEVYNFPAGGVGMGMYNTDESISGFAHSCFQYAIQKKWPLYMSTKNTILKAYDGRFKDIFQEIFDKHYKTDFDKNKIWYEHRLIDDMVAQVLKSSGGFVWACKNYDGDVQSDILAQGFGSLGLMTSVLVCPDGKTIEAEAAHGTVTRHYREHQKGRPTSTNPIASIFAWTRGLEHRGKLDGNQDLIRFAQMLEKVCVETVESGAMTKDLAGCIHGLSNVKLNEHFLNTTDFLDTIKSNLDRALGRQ

With `C=CC(=O)N1CCN(C2CCCCCCCN3C(=O)OCc4cnc(nc43)N[C@@H](C)c3ccc2cc3)CC1` (stereo partly drawn) [Example 4, (3S)-5-(4-acryloylpiperazin-1-yl)-3-methyl-1^1,1^4-dihydro-1^2H-2-aza-1(7,1)-pyrimido[4,5-d][1,3]oxazina-4(1,4)-benzenacyclododecaphan-1^2-one], the IC50 in test [1] was 282 nM; in test [2], greater than 16700 nM; in test [3] it was 295 nM.

Regarding `C=CC(=O)N1CCN(C2CCCC/C=C/CN3C(=O)OCc4cnc(nc43)N[C@@H](C)c3ccc2cc3)CC1` (stereo partly drawn) [Example 3, (3S,E)-5-(4-acryloylpiperazin-1-yl)-3-methyl-1^1,1^4-dihydro-1^2H-2-aza-1(7,1)-pyrimido[4,5-d][1,3]oxazina-4(1,4)-benzenacyclododecaphan-10-en-1^2-one], the IC50 in test [1] was determined as 277 nM; in test [2] it was 3170 nM; in test [3], 260 nM.
